Measured values taken from patent US11478460B2, “Diaryl substituted 6,5-fused ring compounds as C5aR inhibitors” (CHEMOCENTRYX, INC., priority 2017, dated 2022).

molecular target: C5aR (Homo sapiens (Human), UniProt P21730); assay: Chemotaxis assay using U937 cells (C5aR mediated migration); type: cell-based; details: read-out: Mig IC50
Description: U937 cells are a monocytic cell line which express C5aR, and are available from ATCC (VA). These cells were cultured as a suspension in RPMI-1640 medium supplemented with 2 mM L-glutamine, 1.5 g/L sodium bicarbonate, 4.5 g/L glucose, 10 mM HEPES, 1 mM sodium pyruvate, and 10% FBS. Cells were grown under 5% CO2/95% air, 100% humidity at 37° C. and subcultured twice weekly at 1:6 (cells were cultured at a density range of 1×10^5 to 2×10^6 cells/mL) and harvested at 1×10^6 cells/mL. Prior to assay, cells are treated overnight with 0.5 mM of cyclic AMP (Sigma, OH) and washed once prior to use. cAMP treated U937 cells can be used in C5aR ligand binding and functional assays.
Optionally, compounds may be further assayed for their ability to inhibit chemotaxis in cells. Chemotaxis assays are performed using 5 μm pore polycarbonate, polyvinylpyrrolidone-coated filters in 96-well chemotaxis chambers (Neuroprobe; Gaithersburg, Md.) using chemotaxis buffer (Hank's balanced salt solution (HBSS) and 1% FBS). C5aR ligands (i.e., C5a, R&D Systems; Minneapolis, Minn.) are use to evaluate compound mediated inhibition of C5aR mediated migration. Other chemokines (i.e., SDF-1α; R&D Systems; Minneapolis, Minn.) are used as specificity controls. The lower chamber is loaded with 29 μl of chemokine (i.e., 0.03 nM C5a) and varying amounts of compound; the top chamber contains 100,000 U937 or neutrophil cells in 20 μl. The chambers are incubated 1.5 hours at 37° C., and the number of cells in the lower chamber quantified either by direct cell counts in five high powered fields per well or by the CyQuant assay (Molecular Probes), a fluorescent dye method that measures nucleic acid content and microscopic observation.
The compounds in Table 1, below, were prepared using the methods described above. Characterization data is provided for each compound listed. Activity is provided as follows for the chemotaxis assay using U937 cells as described herein (Example 12): +, 500 nM<IC50; ++, 50 nM<IC50≤500 nM; +++, 5 nM<IC50≤50 nM; and ++++, IC50≤5 nM.

Chain of C5aR (P21730 whole entry): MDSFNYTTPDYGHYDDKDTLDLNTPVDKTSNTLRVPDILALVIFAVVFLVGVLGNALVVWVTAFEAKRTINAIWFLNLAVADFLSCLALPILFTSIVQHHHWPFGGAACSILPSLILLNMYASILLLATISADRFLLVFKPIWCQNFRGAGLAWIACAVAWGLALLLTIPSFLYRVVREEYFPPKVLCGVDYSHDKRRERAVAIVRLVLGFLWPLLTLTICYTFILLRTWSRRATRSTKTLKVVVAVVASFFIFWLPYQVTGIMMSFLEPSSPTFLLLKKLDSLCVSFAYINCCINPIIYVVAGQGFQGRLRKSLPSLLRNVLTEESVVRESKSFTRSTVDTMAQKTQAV

IC50 | Compound
≤ 5 nM | Cc1cnc(N2CCc3nn(-c4c(C)cccc4C)c(-c4cc(F)c(NC(N)=O)cc4F)c3C2)c(Cl)c1 [Example 1.115]
> 500 nM | Cc1cccc(C)c1-n1nc2c(c1-c1cc(F)c(NC(=O)CN)cc1F)CN(c1ncc(Cl)cc1Cl)CC2 [Example 1.116]
≤ 5 nM | Cc1cc(NC(N)=O)c(F)cc1-c1c2c(nn1-c1c(C)cccc1C)CCN(c1ccc(C(F)(F)F)cc1F)C2 [Example 1.117]
≤ 5 nM | Cc1cc(NC(N)=O)c(F)cc1-c1c2c(nn1-c1c(C)cccc1C)CCN(c1ccc(Cl)cc1Cl)C2 [Example 1.118]
≤ 5 nM | Cc1cccc(C)c1-n1nc2c(c1-c1cc(F)c(NC(N)=O)cc1F)CN(c1ccc(Cl)cc1Cl)CC2 [Example 1.119]
> 500 nM | Cc1cccc(C)c1-n1nc2c(c1-c1cc(F)c(N)cc1F)CN(c1ncc(Cl)cc1Cl)CC2 [Example 1.120]
> 500 nM | COc1cc(F)c(-c2c3c(nn2-c2c(C)cccc2C)CCN(c2ncc(Cl)cc2Cl)C3)cc1F [Example 1.121]
≤ 5 nM | Cc1cccc(C)c1-n1nc2c(c1-c1cc(F)c(NC(N)=O)cc1F)CN(c1ccc(C(F)(F)F)cc1F)CC2 [Example 1.122]
≤ 5 nM | COc1cc(NC(N)=O)c(F)cc1-c1c2c(nn1-c1c(C)cccc1C)CCN(c1ncc(Cl)cc1Cl)C2 [Example 1.123]
≤ 5 nM | Cc1cccc(C)c1-n1nc2c(c1-c1cc(F)c(NC(N)=O)cc1F)CN(c1ncc(C3CC3)cc1Cl)CC2 [Example 1.124]
50 to 500 nM | Cc1cccc(C)c1-n1nc2c(c1-c1cc(F)c(NC(=O)CO)cc1F)CN(c1ncc(Cl)cc1Cl)CC2 [Example 1.125]
50 to 500 nM | CC(=O)Nc1cc(F)c(-c2c3c(nn2-c2c(C)cccc2C)CCN(c2ncc(Cl)cc2Cl)C3)cc1F [Example 1.126]
≤ 5 nM | Cc1cccc(C)c1-n1nc2c(c1-c1cc(F)c(NC(N)=O)cc1F)CN(c1ncccc1Cl)CC2 [Example 1.127]
≤ 5 nM | Cc1cc(NC(N)=O)c(F)cc1-c1c2c(nn1-c1c(C)cccc1C)CCN(c1ncc(Cl)cc1Cl)C2 [Example 1.128]
≤ 5 nM | Cc1cc(NC(N)=O)c(F)cc1-c1c2c(nn1-c1c(C)cccc1OCC(C)C)CCN(c1ncc(C(C)C)cc1F)C2 [Example 1.129]
≤ 5 nM | COc1cc(NC(N)=O)c(F)cc1-c1c2c(nn1-c1c(C)cccc1OCC(C)C)CCN(c1ncc(C(C)C)cc1F)C2 [Example 1.130]
≤ 5 nM | COCC(c1ccccc1)N1CCc2nn(-c3c(C)cccc3OCC(C)C)c(-c3cc(F)c(NC(N)=O)cc3F)c2C1 (stereo not drawn) [Example 1.131]
≤ 5 nM | Cc1cccc(C)c1-n1nc2c(c1-c1cc(F)c(NC(N)=O)cc1F)CN(c1ncc(Cl)cc1F)CC2 [Example 1.132]
50 to 500 nM | Cc1ccnc(C)c1-n1nc2c(c1-c1cc(F)c(NC(N)=O)cc1F)CN(C(C)(C)c1ccccc1)CC2 [Example 1.133]

IC50 | Compound
5 to 50 nM | Cc1cccc(OCC(C)C)c1-n1nc2c(c1-c1ccc(NC(N)=O)cc1)CN(C(C)(C)c1ccccc1)CC2 [Example 1.134]
> 500 nM | CCc1cccc(CC)c1-n1nc2c(c1-c1cc(F)c(NC(N)=O)cc1F)CN(C(C(N)=O)c1ccccc1)CC2 (stereo not drawn) [Example 1.135]
≤ 5 nM | CC(C)(c1ccccc1)N1CCc2nn(-c3ccccc3OCC(F)(F)F)c(-c3cc(F)c(NC(N)=O)cc3F)c2C1 [Example 1.136]
≤ 5 nM | Cc1cccc(OCC(C)C)c1-n1nc2c(c1-c1cc(F)c(NC(N)=O)cc1F)CN(c1ccnc(C(F)(F)F)n1)CC2 [Example 1.137]
≤ 5 nM | CC(C)(c1ccccc1)N1CCc2nn(-c3ccccc3OC(F)(F)F)c(-c3cc(F)c(NC(N)=O)cc3F)c2C1 [Example 1.138]
≤ 5 nM | Cc1cccc(OCC(C)C)c1-n1nc2c(c1-c1cc(F)c(NC(N)=O)cc1F)CN(c1ccnc(C(C)C)n1)CC2 [Example 1.139]
> 500 nM | Cc1cccc(OCC(C)C)c1-n1nc2c(c1-c1cc(F)c(NC(N)=O)cc1F)CN(c1ncnc3cc[nH]c13)CC2 [Example 1.140]
≤ 5 nM | Cc1cccc(OCC(C)C)c1-n1nc2c(c1-c1cc(F)c(NC(N)=O)cc1F)CN(c1ncncc1Cl)CC2 [Example 1.141]
5 to 50 nM | Cc1cccc(OCC(C)C)c1-n1nc2c(c1-c1cc(F)c(NC(N)=O)cc1F)CN(c1nccn3ccnc13)CC2 [Example 1.142]
≤ 5 nM | NC(=O)Nc1cc(F)c(-c2c3c(nn2-c2ccccc2OCC(F)(F)F)CCN(c2ncc(Cl)cc2Cl)C3)cc1F [Example 1.143]
≤ 5 nM | CCc1cccc(CC)c1-n1nc2c(c1-c1cc(F)c(NC(N)=O)cc1F)CN(C(CC)c1ccccc1C(F)(F)F)CC2 (stereo not drawn) [Example 1.144]
≤ 5 nM | CCC(c1ccccc1)N1CCc2nn(-c3c(C)cccc3OCC(C)C)c(-c3cc(F)c(NC(N)=O)cc3F)c2C1 (stereo not drawn) [Example 1.145]
≤ 5 nM | Cc1cccc(C)c1-n1nc2c(c1-c1cc(F)c(NC(N)=O)cc1F)CN(C(C)(C)c1ccccc1)CC2 [Example 1.146]
≤ 5 nM | CCc1cccc(CC)c1-n1nc2c(c1-c1cc(F)c(NC(N)=O)cc1OC)CN(c1ncc(Cl)cc1Cl)CC2 [Example 1.147]
≤ 5 nM | CCc1cccc(CC)c1-n1nc2c(c1-c1cc(F)c(NC(N)=O)cc1F)CN(C(C(=O)OC)c1ccccc1)CC2 (stereo not drawn) [Example 1.148]
≤ 5 nM | CCc1cccc(CC)c1-n1nc2c(c1-c1cc(F)c(NC(N)=O)cc1F)CN(C(C)(C)c1ccccc1OC)CC2 [Example 1.149]
≤ 5 nM | CCc1cccc(CC)c1-n1nc2c(c1-c1cc(F)c(NC(N)=O)cc1F)CN(C(CC)c1ccccc1F)CC2 (stereo not drawn) [Example 1.150]
≤ 5 nM | CCc1cccc(CC)c1-n1nc2c(c1-c1cc(F)c(NC(N)=O)cc1F)CN(Cc1ccccc1)C(C)C2 (stereo not drawn) [Example 1.151]
≤ 5 nM | CCc1cccc(CC)c1-n1nc2c(c1-c1cc(F)c(NC(N)=O)cc1F)CN(C(C)c1ccc(F)cc1)CC2 (stereo not drawn) [Example 1.152]

IC50 | Compound
5 to 50 nM | Cc1cccc(C)c1-n1nc2c(c1-c1cc(F)c(NC(N)=O)cc1F)CN(c1ncc(C(C)C)cn1)CC2 [Example 1.153]
≤ 5 nM | Cc1cccc(C)c1-n1nc2c(c1-c1cc(F)c(NC(N)=O)cc1F)CN(c1ncc(C(F)(F)F)cn1)CC2 [Example 1.154]
5 to 50 nM | Cc1cccc(C)c1-n1nc2c(c1-c1cc(F)c(NC(N)=O)cc1F)CN(c1ncc(Cl)cn1)CC2 [Example 1.155]
≤ 5 nM | CCc1cccc(CC)c1-n1nc2c(c1-c1cc(F)c(NC(N)=O)cc1F)CN(C(C)(C)c1cccc(OC)c1)CC2 [Example 1.156]
≤ 5 nM | CCc1cccc(CC)c1-n1nc2c(c1-c1cc(F)c(NC(N)=O)cc1F)CN(C(C)(C)c1ccc(OC)cc1)CC2 [Example 1.157]
≤ 5 nM | Cc1cnc(N2CCc3nn(-c4c(C)cccc4OCC(C)C)c(-c4cc(F)c(NC(N)=O)cc4F)c3C2)nc1 [Example 1.158]
≤ 5 nM | Cc1cccc(OCC(C)C)c1-n1nc2c(c1-c1cc(F)c(NC(N)=O)cc1F)CN(c1ncc(F)cn1)CC2 [Example 1.159]
≤ 5 nM | Cc1cccc(OCC(C)C)c1-n1nc2c(c1-c1cc(F)c(NC(N)=O)cc1F)CN(c1ncccn1)CC2 [Example 1.160]
≤ 5 nM | CCc1cccc(CC)c1-n1nc2c(c1-c1cc(F)c(NC(N)=O)cc1F)CN(C(C)c1ccccc1F)CC2 (stereo not drawn) [Example 1.161]
≤ 5 nM | CCc1cccc(CC)c1-n1nc2c(c1-c1cc(F)c(NC(N)=O)cc1F)CN(C(CC)c1ccccc1)CC2 (stereo not drawn) [Example 1.162]
≤ 5 nM | CCc1cccc(CC)c1-n1nc2c(c1-c1cc(F)c(NC(N)=O)cc1F)CN(C(C)(C)c1cccc(C(F)(F)F)c1)CC2 [Example 1.163]
≤ 5 nM | Cc1cccc(OCC(C)C)c1-n1nc2c(c1-c1cc(F)c(NC(N)=O)cc1F)CN(c1ncc(C(F)(F)F)cn1)CC2 [Example 1.164]
≤ 5 nM | Cc1cccc(C)c1-n1nc2c(c1-c1cc(F)c(NC(N)=O)cc1F)CN(c1ncc(C(C)C)cc1F)CC2 [Example 1.165]
≤ 5 nM | Cc1cccc(OCC(C)C)c1-n1nc2c(c1-c1cc(F)c(NC(N)=O)cc1F)CN(c1ncc(C(C)C)cn1)CC2 [Example 1.166]
≤ 5 nM | NC(=O)Nc1cc(F)c(-c2c3c(nn2-c2ccccc2OC(F)(F)F)CCN(c2ncc(Cl)cc2Cl)C3)cc1F [Example 1.167]
≤ 5 nM | Cc1cc(Cl)cnc1N1CCc2nn(-c3c(C)cccc3OCC(C)C)c(-c3cc(F)c(NC(N)=O)cc3F)c2C1 [Example 1.168]
≤ 5 nM | Cc1cccc(OCC(C)C)c1-n1nc2c(c1-c1cc(F)c(NC(N)=O)cc1F)CN(c1ncc(F)cc1Cl)CC2 [Example 1.169]
≤ 5 nM | Cc1cccc(OCC(C)C)c1-n1nc2c(c1-c1cc(F)c(NC(N)=O)cc1F)CN(c1ncccc1Cl)CC2 [Example 1.170]
5 to 50 nM | CC(C)COc1cccnc1-n1nc2c(c1-c1cc(F)c(NC(N)=O)cc1F)CN(c1ncc(Cl)cc1Cl)CC2 [Example 1.171]
